# Measured values as given in patent US3995033A, “Secondary phosphoric acid esters, composition and method of use” (priority 1971, dated 1976).
# Structures can show the parent of a compound that is named as a salt.
# Legend:
# [1] = system: ovarian lactic acid production produced by PGE1; assay: Prostaglandin-stimulated glycolysis of the prepubertal ovary in vitro; format: cell-based, prepubertal rats
# Procedure: The action of esters of the present invention on the prostaglandin-stimulated glycolysis of the prepubertal ovary is investigated. The method used has been described in detail by Perklev & Ahren (Life Sciences Part I, 10:1387, 1971). In these experiments ovaries from prepubertal rats are removed and placed in Erlenmeyer flasks containing compounds of this invention dissolved in Krebs bicarbonate buffer. After that the ovaries have been preincubated during 60 min. at 37° C in this medium, they are blotted on filter paper and then washed for 2 min. in plain buffer. The ovaries are then transferred to a new incubation medium containing prostaglandins (PG) dissolved in Krebs bicarbonate buffer and incubated at 37° C for 2 hours with continuous shaking. The ovarian glycolysis is then determined by measuring the concentration of lactic acid in the incubation medium. When polyphloretin phosphate (PPP) is present in the preincubation medium in a concentration of 500 μg/ml, the subsequent ovarian lactic acid production produced by PGE1 is reduced to about 50 % of that obtained with ovaries preincubated in plain buffer.
# [2] = system: gerbil colon, contractions produced by prostaglandins E1, E2, F1α and F2α; assay: PG-inhibitory effect on the isolated gerbil colon; set-up: species or system Gerbils (Meriones unguiculatus)
# Procedure: The PG-inhibitory effect of esters of the present invention on the gerbil colon are determined using the general technique described by Eakins, Miller & Karim (J. Pharm. Exp. Ther. 176:441, 1971). Gerbils (Meriones unguiculatus) of own breed, both sexes, weighing 50-80 g are used. The animal is stunned, colon ascendens immediately removed, and a 2-3 cm piece mounted in a 6 ml bath containing a modified de Jalon solution at 28° C and continuously oxygenated. Contractions of the organ are registered either isotonicaly or isometrically. When testing the inhibitory effect of a compound this is added to the bath 2 min. before the addition of prostaglandin. The antagonist (esters of this invention) is usually dissolved in saline, but occasionally an organic solvent such as ethanol has to be included. Several concentrations of each antagonist are used. In this system prostaglandins E1, E2, F1α and F2α produce suitable contractions of the organ in the concentration range 1-50 ng/ml.
# Results from these experiments give an approximation of the PG-inhibitory potency of the compounds. When more precise information about this is desired we use a more elaborate method involving the establishment of several […] dose-response curves in the presence of various concentrations of inhibitor. The method used is essentially the same as that described by Arunlakshana & Schild (Br. J. Pharm. 14:48, 1959). […]
# [3] = system: anaphylactic bronchoconstriction elicited by antigen (egg albumin), isolated perfused guinea-pig lung; assay: Anaphylactic bronchoconstriction in the isolated perfused lung of sensitized guinea-pigs
# Source text: The effects of esters of the present invention on the anaphylactic reaction in guinea-pigs have been investigated using the isolated perfused guinea-pig lung preparation as described by Bhattacharya & Delaunois (Arch. Int. Pharmacodyn. 101:495, 1955). Guinea-pigs weighing about 300 g are sensitized with egg albumin according to Fredholm & Strandberg (1969). After the appropriate sensitization period the lungs are removed and mounted in a moist, thermostated chamber. The trachea and A. pulmonalis are cannulated. The arterial cannula is connected to a perfusion fluid reservoir containing Tyrode solution buffered with 10 % Sorensen phosphate buffer. The tracheal cannula is connected with tubing to a carbogen gas supply delivering a constant amount per time unit. The perfusion pressure is measured in a side arm of the tubing with a "Mercury" transducer connected to an Ultralette UV-recorder. When antigen (egg albumin), 0.1 - 1.0 μg, is injected via the arterial cannula, a broncho-constriction, indicated by an increase in the perfusion pressure, is elicited.
# [4] = system: PGE1-stimulated ovarian glycolysis; assay: In vivo action on prostaglandin-stimulated glycolysis of the prepubertal ovary (i.p. injection, ovaries then incubated with PGE1); set-up: species or system Prepubertal rats of the Sprague-Dawley strain; conditions: injected i.p. (500 μg in 1 ml saline) one hour before removal of ovaries; PGE1 0.4 μg/ml, 2 hours
# Procedure: Prepubertal rats, 24-26 days old, of the Sprague-Dawley strain, are injected intraperitoneally (i.p.) with 1 ml saline containing 500 μg sodium 3,5-dimethylphenyl 4-(3-(2,4,6-trihydroxyphenyl)-3-oxo-propyl)phenyl phosphate.
# One hour later the animals are sacrified by cervical fracture and the ovaries are removed and trimmed free of extraneous tissue. The ovaries are then transferred to an incubation bath containing prostaglandin E1 (PGE1; 0.4 μg/ml) dissolved in Krebs bicarbonate buffer and incubated at 37° C for 2 hours with continuous shaking. The ovarian glyclysis is then determined by measuring the concentration of lactic acid in the incubation medium. The details of the method have been described previously (Perkley, T. & Ahren, K., Life Sciences Part I, 10:1387, 1971).
# [5] = system: PGE2-stimulated corticosterone production by adrenals; assay: Prostaglandin-stimulated corticosterone production by rat adrenals in vitro; format: cell-based, Sprague-Dawley male rats; conditions: for Corticosterone production: mean ± standard error
# Procedure: The inhibitory effect of esters of the present invention has been investigated on the prostaglandin-stimulated corticosterone production by adrenals from male rats in vitro. The experiments were performed using adult Sprague-Dawley male rats weighing 200-250 g, which were housed 1 per cage under conditions of controlled lighting and temperature. Animal quarters were not entered during the 18 hours preceding the experiment. The animals were sacrified by decapitation at 10 AM under conditions chosen to minimize disturbance of the animals. The adrenals were decapsulated and quartered and 8 adrenal quarters from different animals were distributed to 10 ml Erlenmeyer flasks containing 0.5 ml 0.9 % saline and 2.0 ml Krebs-Ringer bicarbonate buffer, pH 7.4. The weight of the adrenal tissue in each flask was determined. The flasks were gassed with 95 % O 2 -- 5 CO2 and preincubated at 37° C for 1 hour with continuous shaking. Following preincubation the media were decanted and discarded. One ml of Krebs-Ringer buffer, with or without the additions of prostaglandin E2 (PGE2) sodium 3,5-dimethylphenyl 4-(3-(2,4,6-trihydroxyphenyl)-3-oxopropyl)phenyl phosphate.
# (for details see below) was added to the flasks, which were then gassed with 95 % 02 -- 5 % CO2 and kept at 37° C for 1 hour with continuous shaking. Following incubation, corticosterone levels were determined on 0.5 ml aliquots of the medium by the sulphuric acid fluorescence method.
# In the first experiment (I) PGE2 in a concentration of 1 μg/ml was added to the incubation medium containing the quartered adrenals.
# In the next experiment (II) different amounts of Leo 1258 to the incubation medium.
# [6] = system: bronchial smooth muscle, isolated perfused guinea-pig lung; assay: Effect on bronchial smooth muscle, isolated perfused guinea-pig lung
# Source text: The effects of esters of the present invention on bronchial smooth muscle have been investigated using an isolated perfused guinea-pig lung preparation according to Thattacharya & Delaunois (Arch. Int. Pharmacodyn. 101:495, 1955). The lungs from guinea-pigs weighing 300-400 g are removed, and the trachea and A. pulmonalis cannulated. The arterial cannula is connected to a perfusion fluid reservoir containing Tyrode solution buffered with 10 % Sorensen phosphate buffer. The tracheal cannula is connected with tubing to a carbogen gas supply delivering a constant amount per time unit. The perfusion pressure is measured in a side arm of the tubing with a "Mercury" transducer connected to an Ultralette UV-recorder. The compounds are injected via the arterial cannula, close to the entrance of A. pulmonalis in the lung.
# [7] = system: gerbil colon (ascending colon) in vivo; assay: Smooth muscle stimulatory effect on the gerbil colon in vivo; set-up: species or system mongolian gerbils
# Procedure: The experiments are performed with mongolian gerbils, anesthetized with pentobarbital, 50 mg/kg. The ascending colon is exposed and carefully stretched between silk thread loops and a strain-gauge transducer.
# After a stable base-line has been established an eter of this invention, sodium 3,5-dimethylphenyl 4-(3-(2,4,6-trihydroxyphenyl)-3-oxopropyl)phenylphosphate (Leo 1258) is infused i.v.
# [8] = system: contractions produced by histamine and bradykinin, isolated guinea-pig ileum; assay: Selectivity on the isolated guinea-pig ileum: histamine and bradykinin; conditions: concentrations as low as 5 μg/ml
# [9] = system: Slow Reacting Substance (SRS) contractions of isolated guinea-pig ileum; assay: Antagonism to Slow Reacting Substance on the isolated guinea-pig ileum
# Procedure: The antagonism to Slow Reacting Substance (SRS) is determined on the isolated guinea-pig ileum as described by Mathe & Standberg (Acta physiol. scand. 82:460, 1971). Purified SRS is obtained from cat paws perfused with compound 48/80 (Strandberg & Uvnas: Acta physiol. scand. 82.358, 1971). Sodium 4-(3-oxo-3-(2,4,6-trihydroxyphenyl)propyl)phenyl phenyl phosphate was tested in this system in several concentrations.
structure (smiles),measurement,setting,value
"Cc1cc(C)cc(OP(=O)(O)Oc2ccc(CCC(=O)c3c(O)cc(O)cc3O)cc2)c1 [Leo 1258, sodium 3,5-dimethylphenyl 4-(3-(2,4,6-trihydroxyphenyl)-3-oxopropyl)phenylphosphate]",activity as a prostaglandin inhibitor relative to PPP,[1],5-10 times
same,IC50,"[1]; Rattus norvegicus, 60 min. preincubation, then 2 hours with PG, read-out: concentration in the preincubation medium giving about 50 % reduction of the lactic acid production produced by PGE1",50 to 100 µg/mL
same,"concentration for 50 per cent reduction of the PG-induced contraction, as fraction of that of PPP",[2]; relative to PPP,about one tenth
same,effect on the anaphylactic bronchoconstriction,[3]; 4-20 μg/ml incorporated in the Tyrode solution,abolished or markedly reduced
same,ovarian glycolysis (lactic acid) compared with saline-injected animals,[4],significantly reduced
same,effect on the PGE2-stimulated corticosterone production,[5]; 0.25 and 1.0 mg added to the incubation bath,dose-related inhibition
same,Corticosterone production,"[5]; Exp. II group A, Leo 1258 250 μg/ml without PGE2",3.9±0.5 μg/100 mgx 1 h
same,Corticosterone production,"[5]; Exp. II group C, PGE2 1 μg/ml + Leo 1258 250 μg/ml",6.5±0.5 μg/100 mgx 1 h
same,Corticosterone production,"[5]; Exp. II group D, PGE2 1 μg/ml + Leo 1258 1 mg/ml",2.9±0.2 μg/100 mgx 1 h
same,dose showing a broncho-constricting effect,[6]; injected via the arterial cannula,≥ 0.5 mg
same,reaction of the gut,[7]; 1 mg/ml in the buffer solution superfusing the gut,increase in tone
same,minimal effective dose,"[7]; Meriones unguiculatus, iv, infused i.v., anesthetized gerbils, read-out: dose that causes the gut to respond with a series of contractions",≥ 40 mg/kg
"CCCCC[C@H](O)/C=C/[C@H]1[C@H](O)CC(=O)[C@@H]1C/C=C\CCCC(=O)O [PGE2, prostaglandin E2, reference compound]",Corticosterone production,"[5]; Exp. I, PGE2 1 μg/ml alone, 4 observ.",7.6±0.4 μg/100 mgx 1 h
same,Corticosterone production,"[5]; Exp. II group B, PGE2 1 μg/ml alone",8.4±0.5 μg/100 mgx 1 h
same,effect on the corticosterone concentration,"[5]; PGE2 1 μg/ml, Exp. I",highly significant increase
"O=C(CCc1ccc(OP(=O)([O-])Oc2ccccc2)cc1)c1c(O)cc(O)cc1O.[Na+] [sodium 4-(3-oxo-3-(2,4,6-trihydroxyphenyl)propyl)-phenyl phenyl phosphate]",inhibition of contractions produced by histamine and bradykinin,[8],not by histamine and bradykinin
same,concentration that inhibits contractions produced by SRS,[9]; concentrations as low as,5 µg/mL
same,manner of the inhibition of SRS contractions,"[9]; parallel shift of the dose-response curves, no change in maximum contraction",competitive
"O=P(O)(Oc1ccccc1)Oc1ccccc1 [sodium salt of diphenyl phosphate, reference compound]",PG-inhibitory effect on the gerbil colon,[2]; concentrations 10 times as high as that of PPP,without effect
same,effect on the anaphylactic bronchoconstriction,[3]; concentration 100 μg/ml,completely lacked such an effect
same,antagonism to SRS,[9],without effect
same,broncho-constricting effect,[6]; dose of 12.8 mg,completely lacked such an effect
same,effect on the gut,"[7]; i.v., doses up to 400 mg/kg",no effect at all
